The record followed here is ChEMBL document CHEMBL3243976, “Ring D oxygenated Spirolactones. Characterization of human metabolic product of spironolactone” (1977).

Common to all, as to format: functional, Urine
For test [1], the system named is Rattus norvegicus. The test can be described thus: Antimineralocorticoid activity in adrenalectomized rat assessed as urinary log (Na X 10)/K at 2.4 mg, sc administered post deoxycorticosterone acetate treatment relative to control.
The subject of test [2] is Rattus norvegicus. Put plainly: Antimineralocorticoid activity in adrenalectomized rat assessed as urinary log (Na X 10)/K at 2.4 mg, sc administered post deoxycorticosterone acetate treatment relative to spironolactone.
Test [3] has as its system Rattus norvegicus. The test can be described thus: Antimineralocorticoid activity in sc dosed adrenalectomized rat assessed as urinary log (Na X 10)/K administered post deoxycorticosterone acetate treatment relative to spironolactone.
The test system of test [4] is Rattus norvegicus. The test can be described thus: Antimineralocorticoid activity in po dosed adrenalectomized rat assessed as urinary log (Na X 10)/K administered post deoxycorticosterone acetate treatment relative to spironolactone.

Regarding `C[C@]12CCC(=O)C=C1C=C[C@H]1[C@@H]3[C@@H](O)C[C@@]4(CCC(=O)O4)[C@@]3(C)CC[C@@H]12`, the T/C in the test with Rattus norvegicus [1] stood at 0.62.

Take `CC(=O)O[C@H]1C[C@@]2(CCC(=O)O2)[C@@]2(C)CC[C@H]3[C@@H](C=CC4=CC(=O)CC[C@@]43C)[C@H]12`: the T/C in the test with Rattus norvegicus [1] worked out at 0.77.

`C[C@]12CCC(=O)C=C1C=C[C@@H]1[C@@H]2CC[C@@]2(C)[C@H]1C(=O)C[C@@]21CCC(=O)O1`: the T/C in the test on Rattus norvegicus [1] was 1.01. Moreover, the Activity in the test on Rattus norvegicus [2] stood at 15%.

For `C[C@]12CCC(=O)C=C1C=C[C@@H]1[C@@H]2CC[C@@]2(C)[C@H]1C[C@H](O)[C@@]21CCC(=O)O1`, the T/C in the test on Rattus norvegicus [1] is 0.84.

On to `C[C@]12CCC(=O)C=C1C=C[C@H]1C3=CC[C@@]4(CCC(=O)O4)[C@@]3(C)CC[C@@H]12`, for which, in the test on Rattus norvegicus [1], the T/C was determined as 0.67.

Turning to `C[C@]12CCC(=O)C=C1C=CC1=C3CC[C@@]4(CCC(=O)O4)[C@@]3(C)CC[C@@H]12`, the T/C in the test with Rattus norvegicus [1] is 0.82.

`C[C@]12CCC(=O)C=C1C=C[C@@H]1[C@@H]2CC[C@@]2(C)[C@H]1CC[C@@]21CCC(=O)O1` [CANRENONE]: the Activity in the test with Rattus norvegicus [3] is 38%; with Rattus norvegicus [4], 35%.
